Measured values taken from BindingDB's records for doi:10.3109/14756366.2010.529807 (University of Ioannina, 2011).

The compounds below were run against T1, Seed linoleate 13S-lipoxygenase-1 (Glycine max, UniProt P08170) (assay: LOX Activity Assay). Details: 25 °C.
T1 sequence (P08170 whole entry): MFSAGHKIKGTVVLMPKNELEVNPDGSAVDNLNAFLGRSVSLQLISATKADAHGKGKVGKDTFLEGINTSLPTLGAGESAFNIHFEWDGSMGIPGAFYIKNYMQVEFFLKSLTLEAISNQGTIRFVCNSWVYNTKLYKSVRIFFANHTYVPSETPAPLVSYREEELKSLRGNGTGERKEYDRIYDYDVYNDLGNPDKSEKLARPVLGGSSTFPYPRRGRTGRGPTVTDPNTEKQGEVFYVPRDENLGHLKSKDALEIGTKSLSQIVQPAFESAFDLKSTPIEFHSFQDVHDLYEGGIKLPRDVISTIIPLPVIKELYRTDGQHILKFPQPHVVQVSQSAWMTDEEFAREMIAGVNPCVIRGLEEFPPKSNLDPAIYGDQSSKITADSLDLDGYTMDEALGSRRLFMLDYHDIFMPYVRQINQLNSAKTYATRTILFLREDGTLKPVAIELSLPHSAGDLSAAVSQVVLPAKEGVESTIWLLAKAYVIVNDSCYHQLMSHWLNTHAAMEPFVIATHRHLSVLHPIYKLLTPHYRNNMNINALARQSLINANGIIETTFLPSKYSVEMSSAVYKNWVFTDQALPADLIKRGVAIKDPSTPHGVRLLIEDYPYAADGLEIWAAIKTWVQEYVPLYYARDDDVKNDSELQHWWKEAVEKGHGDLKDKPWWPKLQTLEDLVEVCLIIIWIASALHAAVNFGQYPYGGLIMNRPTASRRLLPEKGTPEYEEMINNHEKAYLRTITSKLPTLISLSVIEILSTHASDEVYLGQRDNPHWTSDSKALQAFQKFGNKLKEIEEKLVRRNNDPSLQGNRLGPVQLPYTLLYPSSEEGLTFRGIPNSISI
Description: Enzyme activity was monitored by UV analysis. 0.05 cm^3 of enzyme solution was added to a cuvette containing 2 cm^3 linoleic acid solution and the appropriate amounts of buffer and inhibitor solutions in thermostatic water bath at 25°C. There was no pre-incubation time of the enzyme with inhibitor solution. The activity of the enzyme was determined by monitoring the increase in the absorption caused by the oxidation of linoleic acid at 234 nm and 25°C (ε = 25 000 M^−1 cm^−1). One standard solution of complexes in DMSO (10^-2 M) was used for theinhibition activity experiments (three sets). In this case, the substrate concentration was kept constant (0.3 mM), while the amounts of buffer and inhibitor solutions varied according to the inhibitor final concentration needed(0.5-30 μM or 0.15-9 μL from standard solutions). The total experiment volume was 3 cm^3.

IC50 | SMILES
16 µM | Clc1ccc2sc([S][Au][PH](c3ccccc3)(c3ccccc3)c3ccccc3)nc2c1 [[Au(tpp)(Clmbzt)] (4)]
39.4 µM | c1ccc([PH]([Au][S]c2nc3ccccc3s2)(c2ccccc2)c2ccccc2)cc1 [[Au(tpp)(mbzt)] (3)]
18.8 µM | c1ccc([PH]([Au][S]C2=NCCS2)(c2ccccc2)c2ccccc2)cc1 [[Au(tpp)(mtzd)] (2)]
1.2 µM | [Cl][Au][PH](c1ccccc1)(c1ccccc1)c1ccccc1 [[Au(tpp)Cl] (1)]
